Results published in patent US9145398B2, “Methods of treating CXCR4-expressing cancers” (University of Louisville Research Foundation, Inc., priority 2010, dated 2015).
Entries after “also recorded” stand apart in the source; their conditions may differ.

How the values were obtained:
[1] = target: T1, hCXCR4-GFP (Homo sapiens, UniProt P61073); test: Chemotaxis assay, hCXCR4-GFP expressing 300.19 cells, CXCL12; type: cell-based; conditions: concentrations ranging from 50 nM to 100 nM; data not shown
T1 sequence (P61073 whole entry): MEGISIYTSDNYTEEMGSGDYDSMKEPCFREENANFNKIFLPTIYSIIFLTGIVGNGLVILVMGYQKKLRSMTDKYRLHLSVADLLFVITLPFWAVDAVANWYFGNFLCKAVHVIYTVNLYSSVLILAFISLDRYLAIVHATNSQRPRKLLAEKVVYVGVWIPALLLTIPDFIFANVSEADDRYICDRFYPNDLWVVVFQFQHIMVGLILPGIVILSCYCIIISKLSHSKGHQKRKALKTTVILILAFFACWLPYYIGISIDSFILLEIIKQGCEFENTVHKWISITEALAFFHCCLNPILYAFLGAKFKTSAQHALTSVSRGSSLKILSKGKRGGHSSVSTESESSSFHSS
Experimental: (§1) Cells were suspended in chemotaxis buffer (RPMI 1640, 1% fetal bovine serum, 1 mM HEPES) at a concentration of 1×10^7 cells per ml. Cell chemotaxis was determined by examining the migration of the 300.19 cells in response to administration of 50 μM test compound plus an optimized concentration of CXCL12 using a chemotaxis assay that was previously described in Basu et al. (Basu et al., Critical role for polar residues in coupling leukotriene B4 binding to signal transduction in BLT1, J. Biol. Chem. (2007) Vol. 282, pp. 10005-17). 100 μL of 300.19 cells from the above cell suspension were placed in the upper chamber of a Transwell support (Corning Costar, Cambridge, Mass.) and were separated by a 5 micron filter from a bottom chamber containing 50 μM test compound plus the optimized concentration of CXCL12 in a final bottom chamber volume of 600 μl. After 3 h of incubation at 37° C. in 5% CO2, the upper chamber was removed and cells in the lower chamber were counted in a Bürker chamber. Cell counts for all samples were normalized to a CXCL12 plus DMSO control and results are reported using this normalized measure, referred to herein as the chemotaxis index. In some instances, the IC50 concentration (i.e., the concentration at which the chemotaxis index is reduced to 50% of the chemotaxis index of the CXCL12 plus DMSO control) of the test compounds was determined. All assays were performed a minimum of four times; error bars represent the standard deviation of the mean.

[2] = system: TC-1 tumor cells; type: in vivo; conditions: 5 mg/kg i.p. every day for 21 days; versus PBS or Vehicle controls
Text: Development of Animal Model for CXCR4 Dependent Cancer Metastasis in Lungs: To establish a CXCR4 dependent lung tumor metastasis model, we first screened several cancer cell lines that are known to metastasize to lungs in mice models to determine which cancer cell lines endogenously express CXCR4 receptor. The mice cell lines screened were Lewis lung carcinoma, B16F10 melanoma, and TC-1 cervical carcinoma. Mice cell lines were screened using flow cytometry-based surface receptor staining using a fluorochrome labeled antibody to mouse CXCR4 receptor. […] The TC-1 cell line was generated by transfection of murine lung squamous epithelial cells by Human pappillomavirus (HPV) oncogenes E6, E7, and activated Ras.
5 mg/kg body weight of AMD3100, I-28, I-36, or I-38 were also injected at the same dose intra-peritoneal (i.p.) every day for 21 days starting from the day before the tumor cell injection. Mice were sacrificed and lungs were perfused and collected on day 21 post tumor challenge. Lungs were stored in formalin for 16 hrs and then transferred into 70% ethanol until the lung lobes became lucid. All five lung lobes were separated. Tumors were counted using a magnifying glass or a microscope. Tumor sizes were measured using a digital caliper. The total number of tumors counted in all five lung lobes of an individual mouse is reported as the tumor incidence. Mean tumor sizes were added together to calculate cumulative tumor size, which is reported as the tumor burden for each mouse.

[3] = target: T1, hCXCR4-GFP; test: Intracellular calcium mobilization assay, hCXCR4-GFP expressing 300.19 cells, CXCL12; type: cell-based; design: IC50 of intracellular calcium mobilization, CXCR4; other: CXCL12-mediated; other: 50 μM test compound; normalized Δ fluorescence (CXCR4, intracellular calcium mobilization); other: 50 μM test compound, 60 seconds pretreatm; conditions: for normalized Δ fluorescence (CXCR4, intracellular calcium mobilization): 50 μM test compound, 60 seconds pretreatment, optimized CXCL12 (AMD3100 concentration not given); for IC50: CXCL12-mediated, read-out: IC50 of intracellular calcium mobilization, CXCR4
Experimental: (§2) Intracellular Calcium Mobilization Assay Method: The intracellular calcium mobilization assay used 300.19 cells which stably expressed hCXCR4-GFP, as described previously in Pello et al. (2008). Cells were loaded with INDO-I and then pretreated with the 50 μM of the test compound for 60 seconds prior to stimulation of intracellular calcium mobilization with an optimized concentration of CXCL12. […] The value Δ florescence is the difference between (a) the fluorescence ratio from cells before exposure to CXCL12 at its optimized concentration and (b) the fluorescence ratio from cells following stimulation with the optimized concentration of CXCL12. Decreases in Δ florescence correspond to decreases in intracellular calcium mobilization, and therefore, decreased signaling. As CXCL12 concentration was optimized for each test compound, results are presented as normalized Δ florescence which is Δ fluorescence divided by the fluorescence ratio of optimized CXCL12-only stimulation. In some instances, the IC50 concentration (concentration at which intracellular calcium mobilization is reduced to 50% of the Δ fluorescence of the CXCL12 plus DMSO control) of the test compounds was determined. All assays were performed a minimum of four times; error bars represent the standard deviation of the mean.

[4] = system: hCXCR4-GFP; test: Chemotaxis assay, hCXCR4-GFP expressing 300.19 cells, CXCL12; type: cell-based, human; conditions: 50 μM test compound
Experimental: as §1

[5] = system: hCXCR4-GFP; test: Intracellular calcium mobilization assay, hCXCR4-GFP expressing 300.19 cells, CXCL12; type: cell-based, human; conditions: for difference between CXCR4- and BLT1-mediated intracellular calcium mobilization: 50 μM test compound
Experimental: as §2

[6] = target: BLT1 (Homo sapiens, UniProt Q15722); test: Intracellular calcium mobilization assay, cells expressing BLT1, LTB4; type: cell-based; conditions: for IC50: LTB4-mediated; for normalized Δ fluorescence (BLT1, intracellular calcium mobilization): 50 μM test compound, LTB4
BLT1, sequence (Q15722 whole entry, species assumed): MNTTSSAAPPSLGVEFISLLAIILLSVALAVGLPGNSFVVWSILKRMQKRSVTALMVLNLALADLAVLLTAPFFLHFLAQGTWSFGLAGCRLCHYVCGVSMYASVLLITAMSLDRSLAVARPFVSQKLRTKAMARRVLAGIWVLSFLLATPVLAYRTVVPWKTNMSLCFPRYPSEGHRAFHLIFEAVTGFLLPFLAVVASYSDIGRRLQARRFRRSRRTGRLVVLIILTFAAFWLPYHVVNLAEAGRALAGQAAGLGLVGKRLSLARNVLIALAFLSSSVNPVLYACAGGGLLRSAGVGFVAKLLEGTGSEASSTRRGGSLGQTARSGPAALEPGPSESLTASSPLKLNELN
Experimental: as §2
At 50 μM test compound concentrations in BLT1-expressing cells, I-44 (0.040) and I-46 (0.017) inhibited intracellular calcium mobilization.

[7] = system: 300.19 cells; test: Cytotoxicity assay, propidium iodide based flow cytometry; type: cell-based; conditions: for cytotoxicity, percentage of cells staining positive for PI: 50 μM test compound
Experimental: Cytotoxicity Assay Method: To determine the potential for test compound cytotoxicity to influence cell intracellular calcium mobilization and chemotaxis, cell cytotoxicity was assessed using propidium iodide (PI) based flow cytometry. Propidium iodine is impermeable to intact cell membranes and thus its lack of intercalation into DNA (which increases PI fluorescence) is a positive indicator of cell viability. Cytotoxicity values are presented as percentage of cells staining positive for PI. Lower values of fluorescence indicate less cytotoxicity. All assays were performed a minimum of four times; error bars represent the standard deviation of the mean.

Row | Structure (SMILES) | difference between CXCR4- and BLT1-mediated chemotaxis [4] | IC50 [6] [µM] | cytotoxicity, percentage of cells staining positive for PI [7] [%] | IC50 [3] [µM] | also measured
1 | c1cc(CN2CCCNCCNCCCNCC2)ccc1CN1CCCNCCNCCCNCC1 [AMD3100, reference compound] |  |  |  |  | inhibition of chemotaxis [1]: completely inhibited; TC-1 metastatic tumor incidence and burden in lungs [2]: reduced mice TC-1 metastatic tumor incidence and burden in lungs; also recorded: metastasis of TC-1 was significantly inhibited; normalized Δ fluorescence (CXCR4, intracellular calcium mobilization) [3]: 0.51
2 | N=c1n(CCN2CCCCC2)c2ccccc2n1CC(O)COc1ccc(Cl)cc1 (centres unmarked) [Compound I-5, 1-(4-chlorophenoxy)-3-[2-imino-3-[2-(1-piperidyl)ethyl]benzoimidazol-1-yl]-propan-2-ol] | small differences |  |  |  | 
3 | CCc1ccc(OCCNc2cc(N3CCNC(C)C3)ccc2[N+](=O)[O-])cc1 (centres unmarked) [Compound I-4, N-[2-(4-ethylphenoxy)ethyl]-5-(3-methylpiperazin-1-yl)-2-nitro-aniline] | small differences | 40 | 98.8 | 45 | difference between CXCR4- and BLT1-mediated intracellular calcium mobilization [5]: no significant difference; cytotoxicity at 5 μM ([7]; 5 μM): maintained cytotoxicity
4 | O=C(/C=C/c1ccccc1)NC(=S)Nc1cccc(-c2nc3ncccc3o2)c1 [Compound I-40, 1-(3-(oxazolo[4,5-b]pyridin-2-yl)phenyl)-3-((E)-3-phenylacryloyl)thiourea] |  |  | 88.3 |  | 
5 | CCOC(=O)c1c(C)[nH]c(C(=O)COC(=O)c2c(-c3ccccc3)noc2C)c1C [Compound I-32, [2-(4-ethoxycarbonyl-3,5-dimethyl-1H-pyrrol-2-yl)-2-oxo-ethyl]5-methyl-3-phenyl-isoxazole-4-carboxylate] | small differences |  |  |  | 
6 | C(=C\N1CCCC1)/c1nnnn1-c1ccc2ccccc2c1 [Compound I-2, 1-(2-naphthyl)-5-(2-pyrrolidin-1-ylvinyl)tetrazole] |  | 40 | 63.5 | 45 | difference between CXCR4- and BLT1-mediated intracellular calcium mobilization [5]: no significant difference; cytotoxicity at 10 μM [7]: retained cytotoxicity
7 | CCOc1ccc(NCC(O)Cn2c3ccccc3n3c(=O)cc(C)c(C#N)c23)cc1 (centres unmarked) [Compound I-15, 5-[3-[(4-ethoxyphenyl)amino]-2-hydroxypropyl]-1,5-dihydro-3-methyl-1-oxo-pyrido[1,2-a]benzimidazole-4-carbonitrile] |  | 30 |  | 50 | fold greater inhibition of CXCR4-mediated than BLT1-mediated intracellular calcium mobilization ([5]; from normalized Δ fluorescence): ~3 fold; normalized Δ fluorescence (BLT1, intracellular calcium mobilization) [6]: 0.16; normalized Δ fluorescence (CXCR4, intracellular calcium mobilization) [3]: 0.45
8 | C=C(C)C1CC=C(CN(CCCN(C)C)CCCN(C)C)CC1 (centres unmarked) [Compound I-6, N-(3-dimethylaminopropyl)-N-[(4-isopropenyl-1-cyclohexenyl)methyl]-N′,N′-dimethyl-propane-1,3-diamine] | small differences |  |  |  | 
9 | COc1ccc(-c2cc(-c3ccccc3)cc3sc(/C(N)=N\C#N)c(N)c23)cc1 [Compound I-44, (E)-3-amino-N′-cyano-4-(4-methoxyphenyl)-6-phenylbenzo[b]thiophene-2-carboxamidine] |  |  | 99.8 |  | normalized Δ fluorescence (BLT1, intracellular calcium mobilization) [6]: 0.040; normalized Δ fluorescence (CXCR4, intracellular calcium mobilization) [3]: 0.29
10 | CCOc1ccc(NCC(O)Cn2c3ccccc3c3ccccc32)cc1 (centres unmarked) [Compound I-16, 1-carbazol-9-yl-3-(4-ethoxyphenyl)amino-propan-2-ol] | small differences | 30 | 67.9 | 35 | cytotoxicity at 10 μM [7]: retained cytotoxicity
11 | CCOc1ccc(NCc2nc3ccccc3n2CCOc2ccccc2)cc1 [Compound I-8, 4-ethoxy-N-((1-(2-phenoxyethyl)-1H-benzo[d]imidazol-2-yl)methyl)benzenamine] | small differences |  |  |  | 
12 | COc1ccccc1C(=O)OCCNc1nc2cc(C)cc(C)c2cc1C#N [Compound I-12, 2-[(3-cyano-5,7-dimethyl-2-quinolyl)amino]ethyl 2-methoxybenzoate] |  | 2.5 |  | 5 | difference between CXCR4- and BLT1-mediated intracellular calcium mobilization [5]: no significant difference
13 | COc1ccc(NCc2nc3ccccc3n2CCOc2ccccc2C)cc1 [Compound I-7, N-((1-(2-(o-tolyloxy)ethyl)-1H-benzo[d]imidazol-2-yl)methyl)-4-methoxybenzenamine] |  |  | 53.4 |  | cytotoxicity at 10 μM [7]: retained cytotoxicity
14 | COC(=O)c1ccc(NC(=O)c2ccc3nc(-c4ccccn4)c(-c4ccccn4)nc3c2)cc1 [Compound I-39, methyl 4-(2,3-di(pyridin-2-yl)quinoxaline-6-carboxamido)benzoate] |  |  |  |  | normalized Δ fluorescence (CXCR4, intracellular calcium mobilization) [3]: 0.31
15 | CCC(=O)NCCNc1nc2cc(C)cc(C)c2cc1C#N [Compound I-13, N-[2-[(3-cyano-5,7-dimethyl-2-quinolyl)amino]ethyl]propanamide] |  | 2.5 |  | 5 | difference between CXCR4- and BLT1-mediated intracellular calcium mobilization [5]: no significant difference
